This note sets out measurements from publication PMC10652874, “Investigation into the mechanism of action of the antimicrobial peptide epilancin 15X” (Frontiers in Microbiology, 2023).

Experiment [1] can be described thus: Liposome permeabilization (sulforhodamine B dye leakage) assay. It is filed as biochemical. The procedure:
For unilamellar liposome preparation, a total of 100 μL of 30 mM 1,2-dioleoyl-sn-glycero-3-phosphocholine (DOPC; Avanti Polar Lipids) and the following lipids dissolved in chloroform were mixed in a glass tube in the appropriate ratio: POPG (Avanti Polar Lipids), POPE (Avanti Polar Lipids), POPS (Avanti Polar Lipids), and purified S. aureus LTA (InvivoGen, catalog # tlrl-pslta). The solvent was evaporated under a stream of nitrogen gas and the glass vial was placed in a vacuum desiccator overnight. A total of 1 mL HEPES-Buffered Saline (HBS) composed of 5 mM HEPES (pH 7.6) and 150 mM NaCl, and 30 mM sulforhodamine B (SRB) was added to each vial. The lipid solution was vortexed for 10 min and lipids were hydrated by five freeze–thaw cycles with liquid N2. The lipid solution was diluted with HBS buffer to 3 mL and the solution was passed 29 times through a mini extruder (Avanti Polar Lipids) with a filter of […] pore diameter to form lipid vesicles of homogeneous size. The extruded solution was passed through Sephadex 50 resin to remove the free sulforhodamine B (liposomes eluted faster than the dye). The size of the liposomes was tested using dynamic light scattering (DLS, Malvern Zetasizer, Dr. Catherine J. Murphy lab, Department of Chemistry, UIUC) and analyzed using Zetasizer software. The DLS data quality was interpreted by the instrument through its embedded algorithm to confirm the data quality. The polydispersity index (PDI), which measures the size distributions was used to monitor the quality of the liposomes. The small PDI indices obtained from DLS readings indicate that the liposomes were monodisperse ([Farkas and Kramar, 2021]). The total lipid concentration was measured with NMR spectroscopy using a reported method ([Hein et al., 2016]). The vesicles were stored at 4°C and used within 1–2 days.
For the dye leakage assay, 100 μL SRB-loaded liposomes (80 μM lipid; 100–200 nm size) were placed in each well in a 96-well microplate. Fluorescence of SRB-loaded liposomes was monitored over time on a Synergy H4 Hybrid Multi-Mode Microplate Reader (BioTeK) using λEx at […]. To each well, a different concentration of peptides or 0.02% triton X-100 was added 5 min after adding liposomes. Liposomes supplied with water were treated as the negative control. The fluorescence emission was measured every 15 s for 2 h. Fluorescence counts were recorded as % leakage and plotted as a function of time. The concentration of epilancin 15X where the SRB leaked from the liposomes reached half of the triton X-100 leakage was recorded as C1/2, and C1/2 values were plotted against DOPC and supplemented lipid concentrations.
In general terms: The SRB assay estimates cell density from bound dye.

For experiment [2], the system named is B. subtilis BSF2470 (1A980). In words: MIC determination in 96-well microtiter plate. The format is cell-based, Bacillus subtilis. The note with it: LB, 37°C, 10^5 CFU/mL, OD600 after 18 h. The procedure: (§1) MIC determination was performed in a 96-well microtiter plate as described previously ([Wu et al., 2019]). Sensitive bacterial culture was grown in the appropriate medium (BHI for S. carnosus; LB for B. subtilis) at 37°C overnight. The culture was diluted to 10^5 CFU/mL in medium in each well. Epilancin 15X or its analog was dissolved in water and serially diluted to obtain final concentrations of 20, 10, 5, 2.5, 1.25, 0.625, 0.3125, 0.156, 0.078, 0.039, 0.019, and 0.009 μM. OD600 readings were obtained after 18 h using a Synergy H4 Hybrid Multi-Mode Microplate Reader (BioTeK). Cell-free untreated medium, and untreated cell culture were used as negative controls. The MIC of nisin against B. subtilis BSF2470 was determined following the same methods.

The subject of another experiment is B. subtilis 168. The experiment in a line: MIC determination in 96-well microtiter plate. The format is cell-based, Bacillus subtilis. The settings on record: LB, 37°C, 10^5 CFU/mL, OD600 after 18 h. The procedure:
as §1

The test system of another experiment is B. subtilis ATCC 6633. In words: MIC determination in 96-well microtiter plate. It is filed as cell-based, Bacillus subtilis. The settings on record: LB, 37°C, 10^5 CFU/mL, OD600 after 18 h. The procedure:
as §1

Experiment [3] concerns S. carnosus TM300. In words: Bright field (Airyscan) microscopy. It is filed as cell-based, Staphylococcus carnosus. The note with it: S. carnosus TM300, 0.5 MIC.
Experiment [4] deals with LiaRS response in B. subtilis BSF2470. The experiment in a line: LiaRS disk diffusion reporter assay (β-galactosidase, X-Gal). The settings on record: 37°C overnight. It is filed as cell-based, Bacillus subtilis. Here is the method:
The LiaRS response was determined via disk diffusion as described previously ([Mascher et al., 2004]). Briefly, B. subtilis strain BSF2470 was grown in LB supplemented with erythromycin (1 μg/mL) overnight at 37°C with shaking. A total of 20 μL of overnight culture was mixed with 100 μL of 20 mg/mL X-Gal (dissolved in DMF) and 5 mL of 0.7% soft LB agar then poured onto a 1.5% LB agar base. The plates were allowed to cool and dry at room temperature for 20 min. The desired molecule was either spotted on a filter paper disk and placed on top of the agar or directly spotted on the agar. The following molecules were tested: ampicillin, 0.5 μL on filter disk, 1 μL directly spotted, 100 mg/mL; compound 1771/LtaS-IN-1, 4 μL, 20 mM (dissolved in DMSO); epilancin 15X, 4 μL, 5 mM; vancomycin, 1 μL, 100 mg/mL; nisin, 4 μL, 2 mM; bacitracin, 4 μL on filter disk, 5 μL directly spotted, 100 mg/mL; water, 5 μL; magainin 2, 10 μL, 1 mM; melittin, 10 μL, 1 mM. The plate was incubated at 37°C overnight. After overnight incubation, the plate was imaged. Compound 1771 (CS-0114233) was purchased from ChemScene LLC.
To investigate the effect of epilancin 15X on the cell envelope, we employed the two-component LiaRS reporter system in B. subtilis (lipid II cycle interfering antibiotic response regulator and sensor; [Mascher et al., 2004]). Briefly, the LiaRS assay is a disk diffusion assay used to screen for the ability of compounds to induce β-galactosidase expression in engineered B. subtilis BSF2470 ([Mascher et al., 2004]). Molecules that produce a blue ring around the edge of the zone of growth inhibition are believed to interfere with the lipid II cycle ([Hachmann et al., 2009]). […] The compound 1771, also called LtaS-IN-1, inhibits lipoteichoic acid (LTA) synthesis ([Richter et al., 2013]) and to the best of our knowledge has not been tested in the LiaRS assay.

Experiment [5] deals with S. carnosus TM300. The experiment in a line: MIC determination in 96-well microtiter plate. It is filed as cell-based, Staphylococcus carnosus. The note with it: BHI, 37°C, 10^5 CFU/mL, OD600 after 18 h. The procedure: as §1

Turning to Epilancin 15X, the EC50 in experiment [1] (DOPC liposomes supplemented with POPE, highest concentration tested 64 µM, read-out: C1/2 (concentration giving 50% of triton X-100 leakage)) is above 64 µM. The “fluorescence emission from SRB dye leakage” value in experiment [1] (DOPC liposomes with negatively charged lipids LTA, POPS, POPG) is listed as “increased”. In addition, in experiment [1] (DOPC only, 80 μM lipid, epilancin 15X up to 64 μM, fluorescence over 2 h), the “SRB dye leakage from DOPC liposomes” value was “not detected”. In addition, in experiment [1] (negatively charged lipids S. aureus LTA, POPG, POPS), the “C1/2 values as a function of supplemented lipid concentration” value is recorded as “negative slope”. The “SRB dye leakage from DOPC liposomes doped with POPE” value in experiment [1] (neutral lipid POPE) is “not detected”. Further, the “liposome leakage as a function of supplemented lipid concentration” value in experiment [1] (neutral lipids POPC and POPE) is “no change in liposome leakage”. Further, the MIC – broadly, the least concentration at which growth counts as inhibited – turned out to be 2.5 µM in experiment [2], 4.00 µM in the experiment on B. subtilis 168, 1.25 µM with B. subtilis ATCC 6633 and 0.16 µM in the experiment on S. carnosus TM300 [5]. For the same substance, the “aggregation phenotype of cells (brightfield)” value with S. carnosus TM300 [3] was “Aggregation and chaining of cells was observed”. The “LiaRS response (blue ring at the edge of the zone of inhibition)” value in experiment [4] is reported as “did not induce a LiaRS response”.
